Experimental data taken from patent publication US6897291B1, “pH sensitive potassium channel in spermatocytes” (Icagen, Incorporated, priority 1997, dated 2005).

What was measured:
mSlo3 = target: T1, mSlo3 (Mus musculus, UniProt O54982, V141G); test: mSlo3 currents expressed in Xenopus oocytes, electrophysiology; assay type: cell-based
T1 construct: A full-length mSlo3 cDNA was cloned into pBSC-MXT; expressed in transfected cells; host or cells: Xenopus oocytes (cRNA injection)
T1 sequence (O54982 with tags, fused parts or gaps V141G limits assumed): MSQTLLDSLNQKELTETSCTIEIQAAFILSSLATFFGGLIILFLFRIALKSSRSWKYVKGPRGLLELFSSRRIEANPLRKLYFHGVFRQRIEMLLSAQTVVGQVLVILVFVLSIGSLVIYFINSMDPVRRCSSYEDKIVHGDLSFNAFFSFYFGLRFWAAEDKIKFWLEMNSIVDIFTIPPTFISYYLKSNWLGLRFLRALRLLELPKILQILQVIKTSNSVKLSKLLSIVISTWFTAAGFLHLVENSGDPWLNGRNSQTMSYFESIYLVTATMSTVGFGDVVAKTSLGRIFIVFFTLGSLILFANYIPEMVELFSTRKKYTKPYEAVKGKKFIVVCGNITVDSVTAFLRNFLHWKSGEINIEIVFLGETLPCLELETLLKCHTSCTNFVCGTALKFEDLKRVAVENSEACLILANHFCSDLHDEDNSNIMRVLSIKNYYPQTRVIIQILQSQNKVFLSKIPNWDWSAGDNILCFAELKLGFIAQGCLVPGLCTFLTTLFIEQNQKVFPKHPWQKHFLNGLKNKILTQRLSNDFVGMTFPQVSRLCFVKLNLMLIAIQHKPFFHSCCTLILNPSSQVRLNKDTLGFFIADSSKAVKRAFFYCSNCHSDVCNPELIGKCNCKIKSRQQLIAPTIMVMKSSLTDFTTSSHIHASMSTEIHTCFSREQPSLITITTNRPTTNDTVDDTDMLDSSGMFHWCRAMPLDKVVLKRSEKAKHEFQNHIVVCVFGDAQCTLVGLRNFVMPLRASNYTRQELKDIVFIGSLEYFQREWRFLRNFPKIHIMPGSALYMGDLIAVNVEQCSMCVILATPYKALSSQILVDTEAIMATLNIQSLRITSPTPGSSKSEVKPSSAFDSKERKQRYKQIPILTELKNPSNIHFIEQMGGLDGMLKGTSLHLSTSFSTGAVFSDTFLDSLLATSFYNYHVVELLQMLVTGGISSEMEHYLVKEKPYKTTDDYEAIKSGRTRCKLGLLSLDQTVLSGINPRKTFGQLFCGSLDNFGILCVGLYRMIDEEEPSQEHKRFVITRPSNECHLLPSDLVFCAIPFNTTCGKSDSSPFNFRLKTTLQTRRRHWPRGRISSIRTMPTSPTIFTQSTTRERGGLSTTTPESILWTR
Method: A full-length mSlo3 cDNA was cloned into pBSC-MXT, a Bluescript-derived plasmid (Stratagene) containing Xenopus β-globin 5′ and 3′ untranslated sequences. cDNA expression constructs were linearized at a unique Not-I site, and capped cRNA was synthesized using the mMessage mMachine (Ambion). Reactions were precipitated with LiCl to remove the DNA template and resuspended in nuclease-free water at a final concentration of approximately 1 mg/ml. Oocytes were prepared for injection as previously described (Wei et al., Science 248:599-603 (1990)), except for the use of a Drummond nanojector. Approximately 50 nl of RNA in nuclease-free water was injected into each oocyte. Oocytes were incubated in ND96 medium (Wei et al., 1994, supra) and analyzed 1-8 days after injection.
cRNA (40 nl at approximately […]) was injected into mature Xenopus oocytes; recordings were made 1-8 days later. For whole cell-recording, medium nd96 (concentrations in mM; 96 NaCl, 2 KCl, 1.8 CaCl2, 1 MgCl2, 5 HEPES, pH 7.5) supplemented with 1 mM DIDS (to block endogenous chloride currents) employed as bath solution, or modified as noted in figure legends. Patches were perfused with either 0 Ca^2+ EGTA solutions (160 K gluconate, 34 KOH, 10 HEPES, and 10 EGTA) or Ca^2+-containing (184 K gluconate, 10 KOH, 10 HEPES, 200 mM hemicalcium gluconate) solutions. HCl was used to adjust pH. Pipet solution contained 0.5 K gluconate, 0.5 KCl, 1.1 KOH, 10 HEPES, 159 Na gluconate, and 2 hemiMg gluconate, pH 7.1. Recording. Two-electrode voltage clamp was carried out with a TEV-200 amplifier (Dagan). Patch currents were recorded on either an Axopatch 1B or 200A amplifier (Axon), and digitized at either 3.4, 5 or 10 kHz. Data acquisition and analysis programs were CCURRENT and CQUANT (Dr. Keith Baker) or pClamp6 (Axon). Recordings were made at room temperature except tail currents which were recorded at 11° C. using a Peltier device (Cambion).

mSlo1 = mSlo1 (Mus musculus, UniProt Q08460); details: mSlo1, comparison value; read-out: EC50 (sensitivity to TEA); cited from earlier work
Sequence of mSlo1 (Q08460 whole entry): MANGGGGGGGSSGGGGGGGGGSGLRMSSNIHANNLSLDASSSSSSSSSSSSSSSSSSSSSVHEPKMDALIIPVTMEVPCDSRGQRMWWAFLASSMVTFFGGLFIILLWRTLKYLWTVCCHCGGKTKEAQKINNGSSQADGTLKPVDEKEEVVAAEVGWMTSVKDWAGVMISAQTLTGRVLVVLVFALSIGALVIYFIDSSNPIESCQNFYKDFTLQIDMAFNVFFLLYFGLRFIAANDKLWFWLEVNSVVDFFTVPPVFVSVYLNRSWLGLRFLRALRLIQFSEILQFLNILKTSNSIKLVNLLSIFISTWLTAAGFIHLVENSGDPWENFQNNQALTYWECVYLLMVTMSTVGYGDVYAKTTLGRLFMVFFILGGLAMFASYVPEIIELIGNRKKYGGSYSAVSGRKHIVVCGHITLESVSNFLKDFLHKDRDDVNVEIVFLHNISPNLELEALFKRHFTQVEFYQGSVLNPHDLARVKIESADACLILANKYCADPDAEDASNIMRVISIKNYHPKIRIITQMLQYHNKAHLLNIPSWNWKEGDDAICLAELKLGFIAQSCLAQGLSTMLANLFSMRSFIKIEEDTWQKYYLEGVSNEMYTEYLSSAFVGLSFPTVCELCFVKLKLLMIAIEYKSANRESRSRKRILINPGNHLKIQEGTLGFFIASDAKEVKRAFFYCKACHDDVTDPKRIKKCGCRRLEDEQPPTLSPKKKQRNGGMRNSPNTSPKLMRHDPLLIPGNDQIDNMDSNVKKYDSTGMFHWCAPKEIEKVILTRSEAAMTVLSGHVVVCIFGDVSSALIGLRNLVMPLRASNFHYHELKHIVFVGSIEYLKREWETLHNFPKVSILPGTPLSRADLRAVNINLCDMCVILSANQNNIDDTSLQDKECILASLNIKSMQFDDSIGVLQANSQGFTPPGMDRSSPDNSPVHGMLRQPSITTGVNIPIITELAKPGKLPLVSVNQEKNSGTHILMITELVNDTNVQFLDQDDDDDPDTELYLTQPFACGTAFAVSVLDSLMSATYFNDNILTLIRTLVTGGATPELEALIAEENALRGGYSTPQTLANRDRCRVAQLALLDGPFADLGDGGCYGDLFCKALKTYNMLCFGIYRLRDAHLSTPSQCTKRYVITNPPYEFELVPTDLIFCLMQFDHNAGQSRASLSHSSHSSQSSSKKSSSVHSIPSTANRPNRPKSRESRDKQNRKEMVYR

## CC[N+](CC)(CC)CC [TEA]
mSlo3; mSlo3 expressed in Xenopus oocytes, read-out: EC50 (sensitivity to TEA)
  EC50: ~100 mM
mSlo1
  EC50: < 0.2 mM

## iberiotoxin (QFTDVDCSVSKECWSVCKDLFGVDRGKCMGKKCRCYQ)
mSlo3; iberiotoxin 20 nM
  effect on mSlo3 currents: did not affect

## charybdotoxin
mSlo3; charybdotoxin 50 nM
  effect on mSlo3 currents: did not affect
